Reference: paper PMC3954902 (Journal of medicinal chemistry, 2013)
pIC50: −log10 of the molar value.

Columns and labels:
recombinant HCV NS5BCΔ21 = recombinant HCV NS5BCΔ21 (Hepatitis C virus genotype 1b, UniProt O92972); assay: NS5B polymerase primer-dependent elongation assay; type: biochemical, HCV genotype 1b (HC-J4); settings: for fold reduction in potency against NS5B relative to derivative 8: ratio of IC50 values vs 8
[1] = test system: HCV genotype 1b subgenomic replicon in Huh-5-2 cells; assay: Replicon assay on Huh5-2; type: cell-based, Hepatitis C virus; settings: for Replicon assay on Huh5-2 SI (ratio of CC50 to EC50): Huh-5-2 cells; for anti-HCV activity and toxicity in words: Huh-5-2 replicon and MTS
NS5B = settings: read-out: NS5B IC50 reported by Kumar et al.; literature value; cited from earlier work
Huh-9-13 cells = assay: MTS assay and microscopic analysis on Huh 9-13 cells; type: cell-based

In the case of `CCOC(=O)c1cn(Cc2ccc(Cl)cc2)c2cc(N3CCN(c4ccccn4)CC3)c(N)cc2c1=O` [Compound 27, Ethyl 6-amino-1-(4-chlorobenzyl)-4-oxo-7-[4-(2-pyridinyl)-1-piperazinyl]-1,4-dihydro-3-quinolinecarboxylate], the “fold reduction in potency against NS5B relative to derivative 8” value (recombinant HCV NS5BCΔ21) was ~ 45 fold.

In the case of `COc1cc2c(=O)c(C(=O)OCc3ccc(C)cc3)cn(Cc3ccc(C(F)(F)F)cc3F)c2cc1OC` [Compound 2, reference compound], the “selectivity of anti-HCV effect from dose-response curve” value ([1]; Huh-5-2, data not shown) is listed as “non-selective anti-HCV agent” and the pIC50 (NS5B) is listed as 8.10.

For `Cc1ccc(COC(=O)c2cn(Cc3ccc(C(F)(F)F)cc3F)c3cc(Cl)c(N)cc3c2=O)cc1` [Compound 4, 4-Methylbenzyl 6-amino-7-chloro-1-[2-fluoro-4-(trifluoromethyl)benzyl]-4-oxo-1,4-dihydro-3-quinolinecarboxylate], the “Replicon assay on Huh5-2 SI (ratio of CC50 to EC50)” value [1] was greater than 2.5 and the “anti-HCV activity and toxicity in words” value [1] was “neither active nor toxic”.

With `Nc1cc2c(=O)c(C(=O)OCc3ccc(Cl)cc3)cn(Cc3ccc(Cl)cc3)c2cc1N1CCN(c2nc3ccccc3s2)CC1` [Compound 9, 4-Chlorobenzyl 6-amino-7-[4-(1,3-benzothiazol-2-yl)-1-piperazinyl]-1-(4-chlorobenzyl)-4-oxo-1,4-dihydro-3-quinolinecarboxylate] the “Replicon assay on Huh5-2 SI (ratio of CC50 to EC50)” value [1] was greater than 17.

In the case of `Nc1cc2c(=O)c(C(=O)OCc3ccc(Cl)cc3)cn(Cc3ccc(Cl)cc3)c2cc1Cl` [Compound 5, 4-Chlorobenzyl 6-amino-7-chloro-1-(4-chlorobenzyl)-4-oxo-1,4-dihydro-3-quinolinecarboxylate], the “anti-HCV activity and toxicity in words” value [1] was “neither active nor toxic” and the “inhibition of NS5B RdRp activity in preliminary screening” value (recombinant HCV NS5BCΔ21; 25 µM compound concentration) was “inactive”.

For `CN1CCN(c2cc3c(cc2N)c(=O)c(C(=O)OCc2ccc(Cl)cc2)cn3Cc2ccc(Cl)cc2)CC1` [Compound 7, 4-Chlorobenzyl 6-amino-1-(4-chlorobenzyl)-7-(4-methyl-1-piperazinyl)-4-oxo-1,4-dihydro-3-quinolinecarboxylate], the “fold higher NS5B inhibition than reference compound 2” value (recombinant HCV NS5BCΔ21; head to head, same assay conditions) was 5 fold.

With `Nc1cc2c(=O)c(C(=O)OCc3ccc(Cl)cc3)cn(Cc3ccc(Cl)cc3)c2cc1N1CCN(c2cccc(C(F)(F)F)c2)CC1` [Compound 10, 4-Chlorobenzyl 6-amino-1-(4-chlorobenzyl)-4-oxo-7-{4-[3-(trifluoromethyl)phenyl]-1-piperazinyl}-1,4-dihydro-3-quinolinecarboxylate] the “Replicon assay on Huh5-2 SI (ratio of CC50 to EC50)” value [1] was greater than 6.

With `Nc1cc2c(=O)c(C(=O)O)cn(Cc3ccc(Cl)cc3)c2cc1N1CCN(c2ccccn2)CC1` [Compound 28, 6-amino-1-(4-chlorobenzyl)-4-oxo-7-[4-(2-pyridinyl)-1-piperazinyl]-1,4-dihydro-3-quinolinecarboxylic acid] the “Replicon assay on Huh5-2 SI (ratio of CC50 to EC50)” value [1] was greater than 28 and the “fold reduction in potency against NS5B relative to derivative 8” value (recombinant HCV NS5BCΔ21) was 345 fold.

For `Nc1cc2c(=O)c(C(=O)OCc3ccc(Cl)cc3)cn(Cc3ccc(Cl)cc3)c2cc1N1CCN(c2ccccn2)CC1` [Compound 8, 4-Chlorobenzyl 6-amino-1-(4-chlorobenzyl)-4-oxo-7-[4-(2-pyridinyl)-1-piperazinyl]-1,4-dihydro-3-quinolinecarboxylate], the “cellular morphology by microscopic analysis” value (Huh-9-13 cells) was “cell aggregation”.
